Measurements as given in ChEMBL document CHEMBL1201862, “PubChem BioAssay data set” (2004).
Active and inactive are the calls of the source. For most assays here, no stated cut-off is given here; in the data, actives have a measured EC50 and inactives only a lower limit.

Tests used:
[1] = system: Streptococcus sp. 'group A'; assay: growth inhibition of control SK(-) GAS strain, dose response, counter-screen for streptokinase expression inhibitor project, luminescence, kanamycin, BacTiterGlo, confirmation (AID 1900); type: functional, organism-based
Streptokinase A = molecular target: T1, Streptokinase A (Streptococcus pyogenes serotype M1, UniProt P10520); assay: S. pyogenes streptokinase expression inhibitors, potency, dose response, plasminogen activation absorbance, OD405 (AID 1914); type: functional, Streptococcus pyogenes M1 GAS;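 further: secreted streptokinase activity via plasminogen activation per viability signal from cell pellet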
T1 sequence (P10520 whole entry): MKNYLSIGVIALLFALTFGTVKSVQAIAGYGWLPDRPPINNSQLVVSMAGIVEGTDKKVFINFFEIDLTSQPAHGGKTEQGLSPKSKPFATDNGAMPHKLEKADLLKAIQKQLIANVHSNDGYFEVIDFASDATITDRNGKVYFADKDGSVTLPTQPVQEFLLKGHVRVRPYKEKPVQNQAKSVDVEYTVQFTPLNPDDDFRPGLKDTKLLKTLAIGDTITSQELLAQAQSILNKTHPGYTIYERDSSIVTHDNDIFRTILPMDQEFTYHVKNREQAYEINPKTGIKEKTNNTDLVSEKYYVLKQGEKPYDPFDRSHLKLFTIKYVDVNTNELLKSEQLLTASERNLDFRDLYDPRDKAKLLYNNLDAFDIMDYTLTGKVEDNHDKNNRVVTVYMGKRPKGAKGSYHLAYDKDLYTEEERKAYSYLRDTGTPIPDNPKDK

NS3 = NS3 (Hepatitis C virus, UniProt A3EZJ3); assay: PubChem AID 2173; set-up: species or system Hepacivirus hominis
Streptococcus = assay: Group A Streptococcus viability loss, dose response, counter-screen for streptokinase expression inhibitor project, luminescence, BacTiterGlo (AID 1915); type: functional, organism-based;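 further: potency for reduction of bacterial viability or growth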
[2] = NIH-3T3 fibroblast cytotoxicity, dose response, cytotoxicity control, cell-based, fluorescence, Alamar Blue, secondary assay (AID 2327); type: functional;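 further: NIH-3T3 mouse fibroblasts cultured with fluconazole at 8 µg/mL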
[3] = C. albicans growth with fluconazole, confirmation, fluorescence, retest (AID 2467); type: functional, cell-based
[4] = enhancers of respiration in Yfh1-depleted yeast, dose response, Friedreich's ataxia, plus single-dose screen (AID 1465); type: functional;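 further: yeast depleted of Yfh1p frataxin homolog grown on glycerol needing respiration; WST-1 tetrazolium dye reduction as measure of cellular dehydrogenase metabolic activity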
Troponin, cardiac muscle = Troponin, cardiac muscle (Homo sapiens, UniProt P19429+P45379+P63316); assay: Fluorescence-based biochemical high throughput dose response assay for activators of the calcium sensitivity of cardiac Regulated Thin Filaments (RTF). [Related pubchem assays (depositor defined):AID493008, AID493018, AID504382, AID504383]; type: protein-complex assay
[5] = Luminescence Cell-Based Dose Response to Identify Activators of 5'UTR Stem-Loop Driven Prion Protein mRNA Translation in H4-C Neuroglioblastoma Cells. [Related pubchem assays: 1829 (Project Summary), 1814 (Primary HTS)]; type: functional
[6] = Luminescence Cell-Based Dose Confirmation HTS to Identify Activators of 5'UTR Stem-Loop Driven Alpha-Synuclein mRNA Translation in H4 Neuroglioblastoma Cells. [Related pubchem assays: 1829 (Project Summary), 1814 (Primary HTS)]; type: functional
[7] = Luminescence Cell-Based Dose Response HTS to Identify Activators of Luciferase Translation or Activity in H4 […] Cells. [Related pubchem assays: 1829 (Project Summary), 1814 (Primary HTS)]; type: functional
H4 = assay: Luminescence Cell-Based Dose Response HTS to Identify Activators of 5'UTR Stem-Loop Driven Prion Protein mRNA Translation in H4 Neuroglioblastoma Cells. [Related pubchem assays: 1829 (Project Summary), 1814 (Primary HTS)]; type: functional; conditions: Homo sapiens
[8] = Luminescence Cell-Based Dose Response to Identify Activators of Luciferase Translation or Activity in H4-C Neuroglioblastoma Cells. [Related pubchem assays: 1829 (Project Summary), 1814 (Primary HTS)]; type: functional
[9] = microbe, parasite or virus in culture; type: functional; conditions: Mycobacterium tuberculosis
[10] = Luminescence Cell-Based Dose Confirmation to Identify Activators of 5'UTR Stem-Loop Driven Alpha-Synuclein mRNA Translation in H4 Neuroglioblastoma Cells. [Related pubchem assays: 1829 (Project Summary), 1814 (Primary HTS)]; type: functional
[11] = inhibitors of firefly luciferase expression or activity, dose response, H4 neuroglioma cells, luminescence (AID 1990); type: functional, cell-based
[12] = Luminescence Cell-Based Dose Response HTS to Identify Inhibitors of 5'UTR Stem-Loop Driven Prion Protein mRNA Translation in H4 Neuroglioblastoma Cells. [Related pubchem assays: 1827 (Project Summary), 1813 (Primary HTS)]; type: functional
Vero [13] = assay: host cell cytotoxicity of antiviral hits, dose response, cytotoxicity control for West Nile virus antiviral project, secondary assay (AID 1650); type: functional; conditions: Chlorocebus sabaeus
[14] = inhibitors of SNCA 5'UTR-driven reporter translation, confirmation, H4 neuroglioma cells, luminescence (AID 1988); type: functional, cell-based
[15] = molecular target: T2, Heat shock factor protein 1 (Mus musculus, UniProt P38532); assay: inhibition of MG132-induced HSE-luciferase signal, confirmation, cell-based, NIH3T3, luminescence, dose retest (AID 2382); type: functional;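 further: NIH3T3 fibroblasts with HSF1-driven luciferase reporter stressed by proteasome inhibitor MG132; luminescence from HSF1-driven luciferase expression after 8 hours of MG132 stress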
T2 sequence (P38532 whole entry): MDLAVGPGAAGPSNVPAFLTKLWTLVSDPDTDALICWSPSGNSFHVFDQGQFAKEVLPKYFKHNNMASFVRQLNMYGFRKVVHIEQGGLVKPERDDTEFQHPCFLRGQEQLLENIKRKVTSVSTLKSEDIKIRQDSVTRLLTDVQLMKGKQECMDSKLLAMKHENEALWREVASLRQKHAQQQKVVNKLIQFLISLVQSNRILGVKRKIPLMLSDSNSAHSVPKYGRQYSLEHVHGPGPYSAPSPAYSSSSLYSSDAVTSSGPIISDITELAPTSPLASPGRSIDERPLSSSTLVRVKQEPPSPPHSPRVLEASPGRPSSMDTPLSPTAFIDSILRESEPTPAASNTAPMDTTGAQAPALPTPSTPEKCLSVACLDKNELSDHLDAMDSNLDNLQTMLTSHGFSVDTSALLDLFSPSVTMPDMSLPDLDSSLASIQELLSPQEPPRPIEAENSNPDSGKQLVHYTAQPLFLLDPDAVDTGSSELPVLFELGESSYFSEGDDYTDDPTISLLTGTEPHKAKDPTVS

[16] = molecular target: Sphingosine 1-phosphate receptor 4 (Homo sapiens, UniProt O95977); assay: Fluorescence dose response cell-based high throughput screening assay for antagonists of the Sphingosine 1-Phosphate Receptor 4 (S1P4). [Related pubchem assays: 1524 (Confirmation in triplicates.), 1510 (Primary screen.)]; type: functional
[17] = molecular target: Sphingosine 1-phosphate receptor 1 (Homo sapiens, UniProt P21453); type: functional;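 further: Tango beta-arrestin reporter U2OS cells stimulated with S1P near its EC80; inhibitor potency meaning antagonism of receptor activation by the natural agonist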
BJ = assay: cytotoxicity toward Ras-transformed BJeLR fibroblasts, dose response, cell-based, alamar blue fluorescence, cherrypicked samples (AID 2631); type: functional; conditions: Homo sapiens;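 further: confirmatory dose-response assay in RAS-dependent BJ fibroblasts engineered with TERT, LT and ST, with cytotoxicity read by fluorescence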
[18] = Luminescence Cell-Based Dose Retest to Confirm Inhibitors of Cancer Stem Cells. [Related pubchem assays (depositor defined):AID2717, AID2721]; type: functional; conditions: Homo sapiens
[19] = molecular target: T2, Heat shock factor protein 1; assay: HSF1 potentiators in luciferase reporter cells, confirmation, cell-based, NIH3T3, luminescence, dose retest (AID 435004); type: functional;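 further: stress induced by proteasome inhibitor MG132 added 30 min after compound; luciferase reporter driven by HSF1 response element in NIH3T3 cells; actives raise luminescence as potentiators of the MG132 stress response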
[20] = molecular target: T3, Replicative DNA helicase DnaB (Mycobacterium tuberculosis, UniProt P9WMR3); assay: DnaB intein splicing inhibitors, dose response, biochemical, cell-free fluorescence (AID 449749); type: functional
T3 sequence (P9WMR3 whole entry): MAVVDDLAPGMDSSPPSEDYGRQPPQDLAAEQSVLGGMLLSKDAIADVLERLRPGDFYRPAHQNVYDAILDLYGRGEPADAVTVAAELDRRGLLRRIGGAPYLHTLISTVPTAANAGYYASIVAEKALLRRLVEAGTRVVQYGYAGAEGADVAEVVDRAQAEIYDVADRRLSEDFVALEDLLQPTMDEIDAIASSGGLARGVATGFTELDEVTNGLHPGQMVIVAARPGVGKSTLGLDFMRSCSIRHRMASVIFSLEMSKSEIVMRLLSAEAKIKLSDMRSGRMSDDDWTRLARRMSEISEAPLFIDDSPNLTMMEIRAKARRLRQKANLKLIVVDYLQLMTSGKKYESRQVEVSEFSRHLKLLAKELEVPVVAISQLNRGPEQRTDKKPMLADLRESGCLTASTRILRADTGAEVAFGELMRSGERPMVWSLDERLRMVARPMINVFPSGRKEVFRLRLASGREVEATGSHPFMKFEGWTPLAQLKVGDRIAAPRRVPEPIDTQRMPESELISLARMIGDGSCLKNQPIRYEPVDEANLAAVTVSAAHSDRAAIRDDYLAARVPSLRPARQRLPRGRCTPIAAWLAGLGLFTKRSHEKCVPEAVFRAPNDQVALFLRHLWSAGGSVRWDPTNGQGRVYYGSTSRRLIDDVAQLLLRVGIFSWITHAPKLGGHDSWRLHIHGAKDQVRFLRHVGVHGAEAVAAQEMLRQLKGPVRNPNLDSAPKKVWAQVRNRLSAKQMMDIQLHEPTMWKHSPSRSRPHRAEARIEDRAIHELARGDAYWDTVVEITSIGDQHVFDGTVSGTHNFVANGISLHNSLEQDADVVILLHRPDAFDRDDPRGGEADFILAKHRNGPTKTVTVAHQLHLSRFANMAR

Protein RecA = molecular target: T4, Protein RecA (Mycobacterium tuberculosis, UniProt P9WHJ3); assay: Fluorescence Cell-Free Homogeneous Dose Retest to Identify Inhibitors of RecA-Intein Splicing Activity. [Related pubchem assays (depositor defined):AID2097, AID2223, AID489010, AID492950]; type: functional
T4 sequence (P9WHJ3 whole entry): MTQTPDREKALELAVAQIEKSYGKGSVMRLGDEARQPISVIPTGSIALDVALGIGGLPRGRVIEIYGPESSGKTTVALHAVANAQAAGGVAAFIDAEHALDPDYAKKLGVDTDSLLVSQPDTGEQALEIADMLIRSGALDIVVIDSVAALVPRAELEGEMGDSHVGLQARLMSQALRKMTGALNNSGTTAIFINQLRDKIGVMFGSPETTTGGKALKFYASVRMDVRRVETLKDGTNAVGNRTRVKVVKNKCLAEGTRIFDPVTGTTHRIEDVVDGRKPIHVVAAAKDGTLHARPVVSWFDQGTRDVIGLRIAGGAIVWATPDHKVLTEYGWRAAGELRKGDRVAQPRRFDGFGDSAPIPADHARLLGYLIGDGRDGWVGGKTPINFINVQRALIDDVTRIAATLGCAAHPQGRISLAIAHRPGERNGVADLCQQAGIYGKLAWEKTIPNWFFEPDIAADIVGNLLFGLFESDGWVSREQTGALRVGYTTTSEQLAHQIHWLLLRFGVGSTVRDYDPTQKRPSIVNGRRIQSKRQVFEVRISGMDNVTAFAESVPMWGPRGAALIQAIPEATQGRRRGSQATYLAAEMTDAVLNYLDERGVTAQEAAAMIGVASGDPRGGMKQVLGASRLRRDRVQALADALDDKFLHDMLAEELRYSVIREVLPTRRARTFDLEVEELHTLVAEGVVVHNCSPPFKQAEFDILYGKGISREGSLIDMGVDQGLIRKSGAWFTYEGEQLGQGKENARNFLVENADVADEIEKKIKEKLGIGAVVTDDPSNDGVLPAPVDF

[21] = molecular target: Induced myeloid leukemia cell differentiation protein Mcl-1 (Homo sapiens, UniProt Q07820); type: functional
Vero [22] = assay: Vero cell cytotoxicity, cytotoxicity control for flavivirus capping enzyme inhibitors (AID 588742); type: functional; conditions: Chlorocebus sabaeus
Vero [23] = assay: cells; type: functional, cell-based; conditions: Chlorocebus sabaeus
Vero [24] = assay: cells; type: functional; conditions: Chlorocebus sabaeus

In the case of `Oc1c(Cl)cc(Cl)cc1/C=N/NC(=S)NC1CC2C=CC1C2` (stereo not drawn), the EC50 [1] is reported as 0.333 µM (active), the EC50 (Streptokinase A) is reported as 0.539 µM (active) and the IC50 (NS3) is reported as 8.21 µM (active). The EC50 (Streptococcus) was 1.3 µM (active).
For `COc1ccc(NC(=O)/C(C#N)=C\c2ccc(N3CCOCC3)o2)cc1`, the EC50 [2] was > 160 µM (inactive), the EC50 [3] was 1.68 µM (active) and the EC50 [4] was > 100 µM (active). For the same molecule, the EC50 (Troponin, cardiac muscle) was 1.58 µM (active).
For `O=C(Nc1nc2ccccc2[nH]1)C12CC3CC(CC(C3)C1)C2`, the EC50 [5] was 0.299 µM (active), the EC50 [6] was < 0.1 µM (active) and the EC50 [7] was 0.19 µM (active). The EC50 (H4) was 0.101 µM (active), the EC50 [8] was 0.358 µM (active) and the CC50 [9] was > 40 µM (active). For the same molecule, the EC50 [10] was 0.341 µM (active).
In the case of `Cn1c(=O)oc2cc(S(=O)(=O)N3CCCC(C(=O)NC4CCCc5ccccc54)C3)ccc21` (stereo not drawn), the EC50 [11] is reported as 13.8 µM (active), the EC50 [12] is reported as 22.5 µM (active) and the CC50 (Vero [13]) is reported as 2.41 µM (active). For the same molecule, the EC50 [14] was 12.9 µM (active).
In the case of `O=C(CCl)Nc1cc(SCC(O)CO)cc([N+](=O)[O-])c1` (stereo not drawn), the EC50 [15] is reported as 2.13 µM (active), the IC50 [16] is reported as 1.31 µM (active) and the IC50 [17] is reported as 4.46 µM (active). The EC50 (BJ) was 1.05 µM (active).
In the case of `COc1ccc(/C=C/C(=O)c2ccc(O)cc2)cc1COc1ccc(F)cc1`, the CC50 (Vero [13]) is reported as 33.9 µM (active), the AC50 [18] is reported as 3.91 µM (active) and the EC50 [19] is reported as 24.3 µM (active). For the same molecule, the AC50 [20] was > 380 µM (inactive) and the EC50 (Protein RecA) was > 380 µM (inactive).
In the case of `CN=c1ccc(Br)cc(C(=O)/C=C/c2ccc(Cl)cc2Cl)c1O`, the IC50 (NS3) is reported as 8.09 µM (active), the IC50 [21] is reported as 5.26 µM (active) and the CC50 (Vero [22]) is reported as 24.7 µM (active). For the same molecule, the IC50 (Vero [23]) was 12.2 µM (active) and the CC50 (Vero [24]) was 14.4 µM (active).
